Experimental data as given in article PMC3043358 (The Prostate, 2010).

Biological target: DNMT1 (Homo sapiens, UniProt P26358)
Format: biochemical

Chain of DNMT1 (P26358 whole entry): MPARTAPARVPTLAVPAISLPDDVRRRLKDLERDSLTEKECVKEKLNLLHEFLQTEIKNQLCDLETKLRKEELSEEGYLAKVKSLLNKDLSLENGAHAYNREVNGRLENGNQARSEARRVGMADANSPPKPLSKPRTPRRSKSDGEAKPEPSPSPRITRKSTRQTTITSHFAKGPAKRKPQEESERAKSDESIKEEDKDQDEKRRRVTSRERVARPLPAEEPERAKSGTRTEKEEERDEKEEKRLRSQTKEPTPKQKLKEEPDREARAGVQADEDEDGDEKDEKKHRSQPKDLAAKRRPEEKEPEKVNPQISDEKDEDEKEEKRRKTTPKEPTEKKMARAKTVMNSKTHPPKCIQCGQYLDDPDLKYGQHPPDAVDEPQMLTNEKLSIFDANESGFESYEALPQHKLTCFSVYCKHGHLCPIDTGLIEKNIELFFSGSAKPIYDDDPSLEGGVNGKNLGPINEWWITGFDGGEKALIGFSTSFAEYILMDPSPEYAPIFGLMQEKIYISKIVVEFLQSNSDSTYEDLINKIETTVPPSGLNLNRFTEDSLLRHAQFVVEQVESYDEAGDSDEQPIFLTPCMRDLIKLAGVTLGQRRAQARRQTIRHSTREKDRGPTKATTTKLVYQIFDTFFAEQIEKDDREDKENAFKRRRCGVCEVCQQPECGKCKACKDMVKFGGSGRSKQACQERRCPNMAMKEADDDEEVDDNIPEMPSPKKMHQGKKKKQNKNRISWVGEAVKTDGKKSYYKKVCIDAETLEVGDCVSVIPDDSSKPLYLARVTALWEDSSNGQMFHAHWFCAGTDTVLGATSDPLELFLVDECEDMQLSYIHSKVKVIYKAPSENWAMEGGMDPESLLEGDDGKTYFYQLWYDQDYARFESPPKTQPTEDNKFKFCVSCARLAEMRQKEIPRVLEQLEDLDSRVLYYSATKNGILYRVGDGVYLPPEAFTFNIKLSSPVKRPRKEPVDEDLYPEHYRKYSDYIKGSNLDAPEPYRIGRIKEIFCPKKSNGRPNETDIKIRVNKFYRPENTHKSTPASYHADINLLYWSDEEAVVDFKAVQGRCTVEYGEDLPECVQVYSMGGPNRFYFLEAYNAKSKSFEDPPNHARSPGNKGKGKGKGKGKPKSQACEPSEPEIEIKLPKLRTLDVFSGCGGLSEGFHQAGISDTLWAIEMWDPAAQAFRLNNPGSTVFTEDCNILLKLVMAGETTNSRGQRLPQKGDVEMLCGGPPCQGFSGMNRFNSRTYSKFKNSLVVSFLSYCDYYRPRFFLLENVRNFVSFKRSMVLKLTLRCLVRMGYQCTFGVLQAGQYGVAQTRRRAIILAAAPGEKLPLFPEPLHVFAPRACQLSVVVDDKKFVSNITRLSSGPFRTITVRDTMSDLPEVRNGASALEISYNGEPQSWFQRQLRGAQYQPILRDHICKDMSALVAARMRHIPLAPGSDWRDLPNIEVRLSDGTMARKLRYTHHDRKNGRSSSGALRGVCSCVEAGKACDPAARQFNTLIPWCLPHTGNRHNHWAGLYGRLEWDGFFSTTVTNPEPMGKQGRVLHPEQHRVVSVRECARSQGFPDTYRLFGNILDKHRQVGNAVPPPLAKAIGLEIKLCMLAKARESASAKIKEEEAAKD

SMILES: CCN(CC)C(=S)SSC(=S)N(CC)CC [DSF, Disulfiram]
- in vitro methyltransferase assay, tritium incorporation from 3H-AdoMet into hemi: 95% reduction of activity at 200
